Data set [1] deals with recombinant GST-tagged L-gulono-1,4-lactone dehydrogenase of Mycobacterium tuberculosis (Mycobacterium tuberculosis, UniProt P9WIT3). The settings on record: for Enzyme specific activity: substrate 50 mM.
Data set [2] addresses plant L-galactono-1,4-lactone dehydrogenase (Brassica oleracea, UniProt O47881). Conditions: read-out: Km for the L-galactono-1,4-lactone substrate; value reported by Östergaard et al., 1997; cited from earlier work.
Data set [3] relates to O=C1O[C@H]([C@@H](O)CO)[C@H](O)[C@@H]1O. Briefly: purified protein, by the assay type.

Where two headings read alike, the source gives them in different places.

recombinant GST-tagged L-gulono-1,4-lactone dehydrogenase of Mycobacterium tuberculosis, sequence (P9WIT3 whole entry): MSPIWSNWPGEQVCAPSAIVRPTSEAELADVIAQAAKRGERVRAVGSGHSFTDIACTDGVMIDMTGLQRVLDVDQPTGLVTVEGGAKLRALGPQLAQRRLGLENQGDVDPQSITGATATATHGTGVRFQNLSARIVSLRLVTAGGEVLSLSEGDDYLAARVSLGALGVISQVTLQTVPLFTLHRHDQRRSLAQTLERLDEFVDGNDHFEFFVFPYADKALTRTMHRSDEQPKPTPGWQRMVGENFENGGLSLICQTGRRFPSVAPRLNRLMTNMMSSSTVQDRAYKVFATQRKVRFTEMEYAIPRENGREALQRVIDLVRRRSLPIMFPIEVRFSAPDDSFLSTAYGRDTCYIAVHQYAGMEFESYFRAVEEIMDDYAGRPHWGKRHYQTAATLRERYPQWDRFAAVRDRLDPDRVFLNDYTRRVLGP
plant L-galactono-1,4-lactone dehydrogenase, sequence (O47881 92-600): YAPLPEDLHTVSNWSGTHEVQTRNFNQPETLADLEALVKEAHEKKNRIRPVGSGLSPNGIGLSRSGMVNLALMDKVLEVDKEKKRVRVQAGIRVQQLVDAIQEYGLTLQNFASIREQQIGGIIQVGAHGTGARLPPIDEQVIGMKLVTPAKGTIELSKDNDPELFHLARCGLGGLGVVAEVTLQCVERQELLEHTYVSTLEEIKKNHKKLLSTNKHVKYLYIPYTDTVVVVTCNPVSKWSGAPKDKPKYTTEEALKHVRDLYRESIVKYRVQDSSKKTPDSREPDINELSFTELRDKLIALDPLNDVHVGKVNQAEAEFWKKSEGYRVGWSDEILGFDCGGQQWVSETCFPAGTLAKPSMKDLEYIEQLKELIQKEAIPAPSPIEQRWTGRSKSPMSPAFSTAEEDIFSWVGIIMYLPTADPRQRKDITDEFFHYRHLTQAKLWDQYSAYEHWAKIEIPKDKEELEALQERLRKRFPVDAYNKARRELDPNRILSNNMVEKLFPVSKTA

For the compound `[Ca+2].[Cl-].[Cl-]` [CaCl2], the Relative activity in data set [1] (effector 1 mM) was 91 % of control.
In the case of `[Cl][Cu][Cl]` [CuCl2], the Relative activity in data set [1] (effector 1 mM) is listed as 0 % of control. Moreover, the “effect on the enzyme activity (in words)” value in data set [1] (effectors, EDTA 1 mM) is listed as “Inhibition”.
As for `O=C[C@@H](O)[C@H](O)[C@H](O)CO` [D-arabinose], in data set [1], the Enzyme specific activity is 0 mU/mg ofprotein.
Same read-out and setting: to `O=C[C@H](O)[C@@H](O)[C@H](O)[C@H](O)C(=O)O` [D-glucuronic acid] belongs 0 mU/mg ofprotein; to `O=C[C@H](O)[C@H]1OC(=O)[C@@H](O)[C@H]1O` [D-glucurono-3,6-lactone], 0 mU/mg ofprotein; to `O=C[C@H](O)[C@@H](O)[C@H](O)CO` [D-xylose], 0 mU/mg ofprotein.
For `O=C(O)CN(CCN(CC(=O)O)CC(=O)O)CC(=O)O` [EDTA], in data set [1], the Relative activity was 0 % of control and the “effect on the enzyme activity (in words)” value is “complete inhibition”.
For `Cc1cc2nc3c(=O)[nH]c(=O)nc-3n(C[C@H](O)[C@H](O)[C@H](O)COP(=O)(O)OP(=O)(O)OC[C@H]3O[C@@H](n4cnc5c(N)ncnc54)[C@H](O)[C@@H]3O)c2cc1C` [FAD], the Relative activity in data set [1] (effector 100 µM) is given as 94 % of control. Also, in data set [1] (effectors, EDTA 1 mM), the “effect on the enzyme activity (in words)” value is “not affected”.
For the compound `O=C1O[C@H]([C@@H](O)CO)[C@@H](O)[C@@H]1O` [L-galactono-1,4-lactone], the Enzyme specific activity in data set [1] worked out at 0 mU/mg ofprotein. Moreover, in data set [1] (substrate specificity), the “activity towards substrate (in words)” value is reported as “no activity”. Besides, the Km in data set [2] was 3.3 mM.
Take `O=C1O[C@H]([C@@H](O)CO)[C@H](O)[C@@H]1O` [L-gulono-1,4-lactone]: in data set [1], the Enzyme specific activity is recorded as 66.7 mU/mg ofprotein.
As for `[Cl-].[Cl-].[Mg+2]` [MgCl2], the Relative activity in data set [1] (effector 1 mM) is listed as 98 % of control.
`[Cl][Mn][Cl]` [MnCl2]: in data set [1] (effector 1 mM), the Relative activity is 79 % of control.
On to `CCN1C(=O)C=CC1=O` [N-ethylmaleimide], for which the Relative activity in data set [1] (effector 1 mM) is given as 0 % of control. Also, the “effect on the enzyme activity (in words)” value in data set [1] (effectors, EDTA 1 mM) is given as “Inhibition”.
As to `[Cl-].[Cl-].[Zn+2]` [ZnCl2], the Relative activity in data set [1] (effector 1 mM) is recorded as 0 % of control. For the same compound, the “effect on the enzyme activity (in words)” value in data set [1] (effectors, EDTA 1 mM) was “Inhibition”.
With “recombinant GST-tagged L-gulono-1,4-lactone dehydrogenase of Mycobacterium tuberculosis (Mycobacterium tuberculosis H37Rv)”, in data set [3], the Km is listed as 5 mM mM, the Vmax is 2.44µmol·h^-1mg^-1 µmol·h^-1mg^-1, the kcat came to 0.033 s^-1 s^-1 and the kcat/Km is 0.0065 s^-1·mM^-1 s^-1·mM^-1.

The record behind these values is EP1710301A1, “L-gulonolactone dehydrogenase of Mycobacterium tuberculosis” (priority 2005, dated 2006).
